Laboratory results taken from patent publication US20080160009A1, “Inhibiting Cav3 Isoforms and the 25B Splice Varients for the Diagnosis and Treatment of Cancer” (priority 2004, published 2008).

Tested on: human PC3 prostate cancer cells
Assay: Lifespan of SCID mice inoculated with human PC3 prostate cancer cells
Format: in vivo

`COc1ccc(CCN2CCC[C@H]2COC(c2ccccc2)c2ccc(Cl)cc2)cc1` (stereo partly shown) [TH-1177] was tested, and the lifespan was “significantly extended the lifespan”.
